From PMC5225183, “Fingerprinting of neurotoxic compounds using a mouse embryonic stem cell dual luminescence reporter assay” (Archives of Toxicology, 2016)
Marks after values point to notes of the source that are not given here.

Tests used:
[1] = system: Tubulin α1 (Tα1) promoter; test: cells; details: ESC-derived neurons, 48 h exposure
Source text: (§1) Dual luciferase expressing CGR8-2Luc cells were obtained by transduction of mouse ESC CGR8 cells with the 2K7 EFS-Renilla Luciferase (RLuc)/Talpha1-Firefly Luciferase (FLuc) vector as previously described (Suter et al. [2006], [2009]); EFS corresponds to the short promoter of the eukaryotic translation elongation factor 1 alpha (EF1α), and Talpha1 to the Tubulin α1 (Tα1) promoter. Tα1 was selected as a promoter active in neurons, including early stages of neural differentiation. EF1α was originally selected to function as a constitutive promoter; however, it responds to cellular differentiation as well as to various chemicals, as previously shown (Kern et al. [2013]). Cells were cultured on 0.1 % gelatin-coated dishes in CGR8-2luc maintenance medium: BHK21 medium, supplemented with 10 % fetal calf serum, L-glutamine, non-essential amino acids, penicillin/streptomycin, and leukemia inhibitory factor (LIF). CGR8 cells were grown in a feeder-independent manner (embryonic pluripotent stem cells, ESCs) as described in protocol 1 (Fig. 1) before testing compounds of interest.
(§2) Fig. 1 Synopsis of experimental protocols. The impact of compounds on neural promoter activity (FLuc, Firefly Luciferase under the control of the Tα1 promoter), general promoter activity (RLuc, Renilla Luciferase under the control of the EF1α promoter), and amount of DNA (PI, propidium iodide fluorescence in cell homogenates) was investigated in undifferentiated mouse embryonic pluripotent stem cells (ESCs) and on ESC-derived neurons. Arrows indicate the time of measurement of the three parameters. a Protocol for testing compounds effects on ESCs. CGR8-2Luc cells were plated on gelatin-coated 96-well plates in maintenance medium (BHK21 medium containing 10 % FCS, L-glutamine, NEAA, P/S, and LIF). Twenty-four hours later, cells were exposed to compounds for forty-eight hours. b Protocol for testing compounds on ESC-derived neurons. CGR8-2Luc cells were co-cultured with MS5 cells to induce neural differentiation in DMEM medium containing 15 % KO-serum, NEAA, β-mercaptoethanol, and P/S. On day 5, cells were detached and seeded on polyornithine-coated plates in DMEM medium containing N2 supplement, bFGF, and P/S; compound exposure was from day 6 to day 8
(§3) To test compounds on ESC-derived neurons, neuronal differentiation was carried out as previously described (Suter et al. [2009]; Xu et al. [2014]). Briefly, CGR8-2Luc cells were seeded on irradiated bone marrow-derived stromal MS5 cells and cultivated for 4 days in DMEM medium containing 15 % Knock-out™ Serum Replacement, non-essential amino acids, beta-mercaptoethanol, and penicillin/streptomycin. At day 5, cells were then re-plated (3 × 10^5 cells/cm^2) on polyornithine-coated 96-well plates in N2 medium containing DMEM, N2 supplement, penicillin/streptomycin, and 10 ng/ml basic human fibroblast growth factor (bFGF) (Invitrogen). […] To assess toxicity of compounds on undifferentiated pluripotent stem cells (ESCs), CGR8-2Luc cells were plated at 45,000 cells/cm^2 on 0.1 % gelatin-coated dishes in BHK21 medium, supplemented with 10 % fetal calf serum, L-glutamine, non-essential amino acids, penicillin/streptomycin, and leukemia inhibitory factor (LIF). After 24 h, compounds were added and incubated for 48 h, before luciferase expression and PI fluorescence were analyzed. In all experiments, methylmercury was used as a positive control at a concentration of 5 µM.
(§4) Luciferase activities were measured with a Dual-Luciferase™ Reporter system kit. CGR8-2Luc ES cells were lysed in 96-well plates according to the manufacturer’s instructions. Luminescence measurements were performed on a Fluostar Optima reader. Luminescence counts were expressed as percentage of promoter activity normalized by comparison with the control wells treated by DMSO.

EF1α promoter = details: 48 h exposure; for LOAEL Neurons EF1α: ESC-derived neurons; for LOAEL ESC EF1α: undifferentiated ESCs
Source text: as §1, §2, §3, §4

[2] = system: Tubulin α1 (Tα1) promoter; details: undifferentiated ESCs, 48 h exposure; lowest tested concentration with statistically significant decrease
Source text: as §1, §2, §3, §4

[3] = system: ESCs and ESC-derived neurons; test: Dual luminescence reporter test system, all readouts in ESCs and ESC-derived neurons
Source text: as §2, with “neurons.” for “neurons. CGR8-2Luc cells were co-cultured with MS5 cells to induce neural differentiation in DMEM medium containing 15 % KO-serum, NEAA, β-mercaptoethanol, and P/S. On day 5, cells were detached and seeded on polyornithine-coated plates in DMEM medium containing N2 supplement, bFGF, and P/S; compound exposure was from day 6 to day 8”
as §3, with “At” for “To test compounds on ESC-derived neurons, neuronal differentiation was carried out as previously described (Suter et al. [2009]; Xu et al. [2014]). Briefly, CGR8-2Luc cells were seeded on irradiated bone marrow-derived stromal MS5 cells and cultivated for 4 days in DMEM medium containing 15 % Knock-out™ Serum Replacement, non-essential amino acids, beta-mercaptoethanol, and penicillin/streptomycin. At”
Luciferase activities were measured with a Dual-Luciferase™ Reporter system kit. CGR8-2Luc ES cells were lysed in 96-well plates according to the manufacturer’s instructions. Luminescence measurements were performed on a Fluostar Optima reader. Luminescence counts were expressed as percentage of promoter activity normalized by comparison with the control wells treated by DMSO. […] parameters were measured in homogenates of ESCs and in ESC-derived neurons: (1) FLuc, reflecting the activity of early neural promoter Tα1. FLuc increases during neuronal differentiation. Many neurotoxic compounds may affect FLuc expression, either through impact on neuronal differentiation, through changes of neuronal gene expression, or through killing of neurons.
(§5) PI was added to cell homogenates after the luciferase test, at a final concentration of 50 µg/ml and incubated for 2 h. After incubation, fluorescence intensity was measured on a Flexstation 3 microplate reader (Excitation: 544 nm ± 15 nm; Emission: 620 nm ± 15 nm). Results are expressed as percentage of control. Propidium iodide (PI) measures total DNA content as an approximation of the cell number. A decrease in PI fluorescence was interpreted as a decrease in cell number and therefore throughout the text referred to as cytotoxicity.
To describe the shape of different concentration–response curves, arbitrary scores were assigned as follows: 0 for “no change,” 1 for “down-stroke,” 2 for “bimodal profile,” and 3 for “up-stroke” (Fig. S1). A curve was classified as “down-stroke” or “up-stroke” if the change in response values comparative to control was statistically significant (p value <0.05, one-way ANOVA with post hoc Dunnett) with an additional requirement of a 30 % decrease or increase of mean response value relative to controls, respectively. If the absolute change in mean response values was below 30 % the curve was classified as “no change.” A curve was classified as “bimodal” if first up-stroke and subsequently down-stroke was observed.

CGR8-2Luc ESCs = details: undifferentiated ESCs, 48 h exposure, PI assay (cytotoxicity)
Source text: as §2, §3
as §5, with “After measurement of luciferase activity, DNA quantity was determined by PI assay, as previously described (Xu et al. [2014]). PI was” for “PI was”
(§6) Lowest adverse effect level (LOAEL) was defined as the lowest tested concentrations that lead to a statistically significant decrease for a given read-out (FLuc, RLuc, and PI) compared to baseline. “Baseline” was not in all cases defined by untreated cells, but may also refer to, e.g., a state of increased activity due to low, non-toxic compound concentrations.

ESC-derived neurons = details: ESC-derived neurons, 48 h exposure, PI assay (cytotoxicity)
Source text: as §2, §3
as §5, with “After measurement of luciferase activity, DNA quantity was determined by PI assay, as previously described (Xu et al. [2014]). PI was” for “PI was”
as §6

[4] = ref Zimmer et al. ([2014]); cited from earlier work

| Compound | LOAEL Neurons Tα1 [1] [µM] | LOAEL Neurons EF1α (EF1α promoter) [µM] | LOAEL ESC EF1α (EF1α promoter) [µM] | LOAEL ESC Tα1 [2] [µM] | Number of non-cytotoxic changes ([3]; mouse, 48 h) | LOAEL ESC DNA (CGR8-2Luc ESCs) [µM] | LOAEL Neurons DNA (ESC-derived neurons) [µM] | LOAEL Neurons Tα1 ([1]; listed as amiodarone) [µM] | Concentration in humans [4] | Number of non-cytotoxic changes ([3]; reporter activity changes in the non-cytotoxic concentration range, highest possible number 4) |
| --- | --- | --- | --- | --- | --- | --- | --- | --- | --- | --- |
| Cc1ccc(NC(=O)c2ccc(CN3CCN(C)CC3)cc2)cc1Nc1nccc(-c2cccnc2)n1 [Imatinib] | 10 | 10 | >10 | 10 | 3 | >10 | >10 | – | – | – |
| CCCCc1oc2ccccc2c1C(=O)c1cc(I)c(OCCN(CC)CC)c(I)c1 [Amiodarone] | 50 | – | – | – | 1 | – | – | 5 | – | – |
| COCCCOc1cc(C[C@@H](C[C@H](N)[C@@H](O)C[C@H](C(=O)NCC(C)(C)C(N)=O)C(C)C)C(C)C)ccc1OC [Aliskiren] | >50 | >50 | >50 | >50 | 0 | >50 | >50 | – | 0.33^k µM | – |
| Exenatide | >0.02 | >0.02 | >0.02 | >0.02 | – | >0.02 | >0.02 | – | – | 0 |
| N[C@@H](CC(=O)N1CCn2c(nnc2C(F)(F)F)C1)Cc1cc(F)c(F)cc1F [Sitagliptin] | >50 | >50 | >50 | >50 | 0 | >50 | >50 | – | 1.9^k µM | – |
